Assay results as given in patent US20260028326A1, “COMPOUND BASED ON ISOINDOLINE-SUBSTITUTED GLUTARIMIDE BACKBONE AND USE THEREOF” (GLUETACS THERAPEUTICS (SHANGHAI) CO., LTD., priority 2022, published 2026).

Legend:
MM.1S cells = test: Tumor cell proliferation IC50 (CCK-8), MM.1S; details: Homo sapiens, MM1.S, 72 h, read-out: IC50 for inhibiting the proliferation of tumor cells, MM.1S;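 further: viability of cultured cells read by CCK-8 reagent after compound exposure, growth inhibition curves fitted to derive IC50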
Method: (§1) The tumor cells used herein were cultured in a cell culture medium listed in table A at 37° C. in an incubator with 5% CO2.
(§2) After the cells were treated with the compounds of the present disclosure for a period of time, the cell viability detection reagent was added to the culture medium for cell viability assessment according to the instructions provided with the CCK-8 kit. […] The growth inhibition of the compounds of the present disclosure on cells was plotted by Prism Graphpad software, and the IC50 values of the compounds of the present disclosure were calculated therefrom.

IKZF1 protein = IKZF1 protein (Homo sapiens (Human), UniProt Q13422+Q96SW2); test: Western-blot assay of substrate protein degradation in hPBMC, IKZF1; format: cell-based; details: for residual substrate protein level, IKZF1: hPBMC cells, compound 500 nM, 24 hours, Western blot
IKZF1 protein, sequence (Q13422 whole entry): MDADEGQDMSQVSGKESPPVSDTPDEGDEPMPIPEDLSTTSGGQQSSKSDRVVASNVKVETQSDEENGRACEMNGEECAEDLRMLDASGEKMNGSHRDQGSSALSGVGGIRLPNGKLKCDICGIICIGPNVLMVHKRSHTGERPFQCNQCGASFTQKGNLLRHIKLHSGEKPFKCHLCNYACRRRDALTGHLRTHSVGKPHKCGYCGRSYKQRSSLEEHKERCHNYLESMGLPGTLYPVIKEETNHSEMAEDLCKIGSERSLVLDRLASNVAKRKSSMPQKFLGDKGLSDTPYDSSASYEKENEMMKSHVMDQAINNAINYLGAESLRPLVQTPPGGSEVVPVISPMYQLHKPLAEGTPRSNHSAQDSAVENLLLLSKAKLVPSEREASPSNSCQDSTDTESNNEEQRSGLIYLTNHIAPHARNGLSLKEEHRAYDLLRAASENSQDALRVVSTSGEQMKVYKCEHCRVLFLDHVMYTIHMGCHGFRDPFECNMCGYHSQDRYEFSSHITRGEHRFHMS
IKZF1 protein, sequence (Q96SW2 whole entry): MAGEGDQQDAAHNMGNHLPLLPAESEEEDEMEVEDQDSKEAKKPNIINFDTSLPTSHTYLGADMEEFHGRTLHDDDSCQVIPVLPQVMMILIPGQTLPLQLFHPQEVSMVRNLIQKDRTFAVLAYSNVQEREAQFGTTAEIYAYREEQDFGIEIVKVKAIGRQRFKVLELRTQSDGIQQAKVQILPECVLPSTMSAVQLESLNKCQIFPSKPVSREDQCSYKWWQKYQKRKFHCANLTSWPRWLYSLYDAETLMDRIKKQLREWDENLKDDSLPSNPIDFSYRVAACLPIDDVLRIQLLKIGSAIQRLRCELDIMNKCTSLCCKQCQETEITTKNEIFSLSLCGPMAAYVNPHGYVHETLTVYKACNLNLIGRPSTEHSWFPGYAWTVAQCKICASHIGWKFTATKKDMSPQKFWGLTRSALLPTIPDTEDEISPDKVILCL
IKZF1 protein, sequence (Q16531 whole entry partner): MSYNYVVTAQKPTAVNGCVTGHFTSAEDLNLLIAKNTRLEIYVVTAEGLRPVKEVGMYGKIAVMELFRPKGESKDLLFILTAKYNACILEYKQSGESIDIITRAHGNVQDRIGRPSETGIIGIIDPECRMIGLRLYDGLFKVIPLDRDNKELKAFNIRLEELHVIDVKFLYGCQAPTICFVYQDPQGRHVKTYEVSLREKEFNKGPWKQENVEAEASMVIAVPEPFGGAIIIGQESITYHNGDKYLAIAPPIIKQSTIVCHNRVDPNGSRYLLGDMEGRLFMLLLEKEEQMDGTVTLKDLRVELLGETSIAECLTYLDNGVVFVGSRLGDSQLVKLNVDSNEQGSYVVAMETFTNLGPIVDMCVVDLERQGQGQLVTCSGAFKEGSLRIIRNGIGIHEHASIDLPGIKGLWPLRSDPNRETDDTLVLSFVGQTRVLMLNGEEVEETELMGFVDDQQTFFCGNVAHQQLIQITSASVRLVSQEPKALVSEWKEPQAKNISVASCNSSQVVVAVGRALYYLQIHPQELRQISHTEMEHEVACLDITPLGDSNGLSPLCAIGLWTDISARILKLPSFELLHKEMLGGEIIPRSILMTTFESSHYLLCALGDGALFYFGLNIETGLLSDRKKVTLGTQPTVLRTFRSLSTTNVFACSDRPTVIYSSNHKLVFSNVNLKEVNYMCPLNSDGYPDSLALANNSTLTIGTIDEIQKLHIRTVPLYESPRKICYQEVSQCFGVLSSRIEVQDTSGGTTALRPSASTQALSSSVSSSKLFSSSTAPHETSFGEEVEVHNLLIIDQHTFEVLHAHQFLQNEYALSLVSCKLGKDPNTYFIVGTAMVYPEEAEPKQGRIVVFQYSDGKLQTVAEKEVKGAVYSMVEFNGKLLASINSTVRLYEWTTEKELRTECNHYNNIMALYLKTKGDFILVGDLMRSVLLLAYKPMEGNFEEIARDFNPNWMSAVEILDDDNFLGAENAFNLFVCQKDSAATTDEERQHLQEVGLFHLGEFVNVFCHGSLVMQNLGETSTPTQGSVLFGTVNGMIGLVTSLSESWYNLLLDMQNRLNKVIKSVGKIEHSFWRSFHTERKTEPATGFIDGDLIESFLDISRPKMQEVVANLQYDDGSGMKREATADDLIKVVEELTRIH

GSPT1 protein = GSPT1 protein (Homo sapiens (Human), UniProt P15170+Q96SW2); test: Western-blot assay of substrate protein degradation in hPBMC, GSPT1; format: cell-based; details: for residual substrate protein level, GSPT1: hPBMC cells, compound 500 nM, 24 hours, Western blot
GSPT1 protein, sequence (P15170 whole entry): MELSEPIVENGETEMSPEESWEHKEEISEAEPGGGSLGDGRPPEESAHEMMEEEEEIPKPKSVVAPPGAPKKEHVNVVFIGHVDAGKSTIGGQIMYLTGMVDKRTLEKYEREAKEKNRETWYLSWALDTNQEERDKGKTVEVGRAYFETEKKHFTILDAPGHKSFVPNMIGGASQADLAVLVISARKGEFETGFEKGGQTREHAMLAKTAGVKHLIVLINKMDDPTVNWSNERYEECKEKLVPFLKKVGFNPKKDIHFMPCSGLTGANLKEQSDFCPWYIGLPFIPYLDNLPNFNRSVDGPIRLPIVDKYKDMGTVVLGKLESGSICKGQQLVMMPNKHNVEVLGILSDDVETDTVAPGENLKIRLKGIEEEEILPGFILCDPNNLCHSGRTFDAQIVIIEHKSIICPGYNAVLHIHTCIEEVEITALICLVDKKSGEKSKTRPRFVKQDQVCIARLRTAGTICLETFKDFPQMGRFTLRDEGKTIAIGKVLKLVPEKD
GSPT1 protein, sequence (Q96SW2 whole entry): as the sequence (Q96SW2 whole entry) above
GSPT1 protein, sequence (Q16531 whole entry partner): as the sequence (Q16531 whole entry partner) above

Mino cells = test: Tumor cell proliferation IC50 (CCK-8), Mino; details: Homo sapiens, 72 h, read-out: IC50 for inhibiting the proliferation of tumor cells, Mino;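 further: cell viability assessed with CCK-8 reagent after compound exposure, IC50 derived from plotted growth inhibition curves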
Method: as §1, §2

[1] = molecular target: human Cereblon WT GST-tagged protein (Homo sapiens (Human), UniProt Q96SW2); test: CRBN-binding affinity, HTRF (CEREBLON BINDING kit)
human Cereblon WT GST-tagged protein, sequence (Q96SW2 whole entry): as the sequence (Q96SW2 whole entry) above
How it was run: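 GST-tagged human WT Cereblon incubated with compound, then Thalidomide-Re tracer and anti-GST Eu antibody added. Displacement read by HTRF, reported as CRBN binding inhibition rate against blank control wells without protein.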

IKZF3 protein = IKZF3 protein (Homo sapiens (Human), UniProt Q96SW2+Q9UKT9); test: Western-blot assay of substrate protein degradation in hPBMC, IKZF3; format: cell-based; details: for residual substrate protein level, IKZF3: hPBMC cells, compound 500 nM, 24 hours, Western blot
IKZF3 protein, sequence (Q9UKT9 whole entry): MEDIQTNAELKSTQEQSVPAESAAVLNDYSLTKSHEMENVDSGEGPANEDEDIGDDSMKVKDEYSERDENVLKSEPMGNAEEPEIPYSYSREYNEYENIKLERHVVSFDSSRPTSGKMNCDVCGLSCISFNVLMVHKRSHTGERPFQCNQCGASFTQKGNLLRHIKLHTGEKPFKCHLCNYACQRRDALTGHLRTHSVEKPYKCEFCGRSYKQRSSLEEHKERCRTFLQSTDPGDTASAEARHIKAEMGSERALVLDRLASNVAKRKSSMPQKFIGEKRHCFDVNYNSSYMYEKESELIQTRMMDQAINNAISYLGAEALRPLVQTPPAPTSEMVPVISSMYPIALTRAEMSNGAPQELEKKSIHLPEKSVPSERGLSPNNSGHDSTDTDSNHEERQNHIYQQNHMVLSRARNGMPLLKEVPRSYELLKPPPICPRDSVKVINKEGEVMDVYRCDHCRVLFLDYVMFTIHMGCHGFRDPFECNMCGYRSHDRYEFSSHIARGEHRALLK
IKZF3 protein, sequence (Q96SW2 whole entry): as the sequence (Q96SW2 whole entry) above
IKZF3 protein, sequence (Q16531 whole entry partner): as the sequence (Q16531 whole entry partner) above

[2] = hPBMC, 24 h, serially diluted 0.03-1000 nM

| IC50 (MM.1S cells) | IC50 (Mino cells) | IC50 [1] | concentration at which significant degradation effects on IKZF1 protein are exhibited (FIG. 1) (IKZF1 protein; [2]) | concentration at which significant degradation effects on GSPT1 protein are exhibited (FIG. 1) (GSPT1 protein; [2]) | concentration at which significant degradation effects on IKZF3 protein are exhibited (FIG. 1) (IKZF3 protein; [2]) | Compound | residual substrate protein level, IKZF1 (IKZF1 protein) | residual substrate protein level, GSPT1 (GSPT1 protein) | residual substrate protein level, IKZF3 (IKZF3 protein) |
| --- | --- | --- | --- | --- | --- | --- | --- | --- | --- |
| 500 to 1000 nM | 100 to 500 nM | 1670 nM |  |  |  | O=C1CCC(N2C(=O)c3ccc(CN4CCN(Cc5ccc(-c6ccc(Cl)cc6)cc5)CC4)cc3C2=O)C(=O)N1 (stereo not drawn) [GT-05599, 5-((4-((4′-chloro-[1,1′-biphenyl]-4-yl)methyl)piperazin-1-yl)methyl)-2-(2,6-dioxopiperidin-3-yl)isoindoline-1,3-dione] | A (A represents a residual substrate protein level of <50%) | B (B represents a residual substrate protein level of >50%) | A (A represents a residual substrate protein level of <50%) |
| 100 to 500 nM | 500 to 1000 nM | 610 nM |  |  |  | Cn1nccc1-c1ccccc1CN1CCN(Cc2ccc3c(c2)CN(C2CCC(=O)NC2=O)C3=O)CC1 (stereo not drawn) [GT-05702, 3-(5-((4-(2-(1-methyl-1H-pyrazol-5-yl)benzyl)piperazin-1-yl)methyl)-1-oxoisoindolin-2-yl)piperidine-2,6-dione] | A (A represents a residual substrate protein level of <50%) | A (A represents a residual substrate protein level of <50%) | A (A represents a residual substrate protein level of <50%) |

Continued, compound first:

| Compound | IC50 (MM.1S cells) | IC50 (Mino cells) | IC50 [1] | concentration at which significant degradation effects on IKZF1 protein are exhibited (FIG. 1) (IKZF1 protein; [2]) | concentration at which significant degradation effects on GSPT1 protein are exhibited (FIG. 1) (GSPT1 protein; [2]) | concentration at which significant degradation effects on IKZF3 protein are exhibited (FIG. 1) (IKZF3 protein; [2]) | residual substrate protein level, IKZF1 (IKZF1 protein) | residual substrate protein level, GSPT1 (GSPT1 protein) | residual substrate protein level, IKZF3 (IKZF3 protein) |
| --- | --- | --- | --- | --- | --- | --- | --- | --- | --- |
| O=C1CCC(N2Cc3cc(CN4CCN(Cc5cnc(-c6ccccc6)cn5)CC4)ccc3C2=O)C(=O)N1 (stereo not drawn) [GT-05544, 3-(1-oxo-5-((4-((5-phenylpyrazin-2-yl)methyl)piperazin-1-yl)methyl)isoindolin-2-yl)piperidine-2,6-dione] | 100 to 500 nM | 5 to 10 nM | 840 nM |  |  |  | A (A represents a residual substrate protein level of <50%) | B (B represents a residual substrate protein level of >50%) | A (A represents a residual substrate protein level of <50%) |
| O=C1CCC(N2Cc3cc(CN4CCN(Cc5ccc(-c6cccs6)cc5)CC4)ccc3C2=O)C(=O)N1 (stereo not drawn) [GT-05640, 3-(1-oxo-5-((4-(4-(thiophen-2-yl)benzyl)piperazin-1-yl)methyl)isoindolin-2-yl)piperidine-2,6-dione] | 100 to 500 nM | 10 to 50 nM | 390 nM | < 3 nM | < 3 nM | < 3 nM | A (A represents a residual substrate protein level of <50%) | B (B represents a residual substrate protein level of >50%) | A (A represents a residual substrate protein level of <50%) |
| O=C1CCC(N2Cc3c(ccc(CN4CCN(C(=O)c5ccccc5-c5ccc(Cl)cc5)CC4)c3F)C2=O)C(=O)N1 (stereo not drawn) [GT-05649, 3-(5-((4-(4′-chloro-[1,1′-biphenyl]-2-carbonyl)piperazin-1-yl)methyl)-4-fluoro-1-oxoisoindolin-2-yl)piperidine-2,6-dione] | 100 to 500 nM | 100 to 500 nM | 680 nM |  |  |  | B (B represents a residual substrate protein level of >50%) | B (B represents a residual substrate protein level of >50%) | A (A represents a residual substrate protein level of <50%) |
